From patent US11203591B2, “Substituted 6-azabenzimidazole compounds” (Gilead Sciences, Inc., priority 2018, dated 2021)

Biological target: human HPK1 (MAP4K1) (Homo sapiens (Human), UniProt Q92918)
Assay: HPK1 IC50 Assay (TR-FRET peptide phosphorylation)
Format: biochemical
Conditions: 0.15 nM HPK1, 10 μM ATP, 1 μM STK S1 peptide substrate; geometric mean
Procedure, shortened: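 Readout: TR-FRET (665 nm/620 nm) after EDTA stop, detecting STK S1 peptide (1 μM) phosphorylation by 0.15 nM HPK1 kinase domain, ATP-pre-activated, at 10 μM ATP over 3 h, 25° C, pH 7.0. IC50s from four-parameter variable-slope fits, normalized to staurosporine and DMSO, averaged geometrically.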

Sequence of human HPK1 (MAP4K1) (Q92918 17-274): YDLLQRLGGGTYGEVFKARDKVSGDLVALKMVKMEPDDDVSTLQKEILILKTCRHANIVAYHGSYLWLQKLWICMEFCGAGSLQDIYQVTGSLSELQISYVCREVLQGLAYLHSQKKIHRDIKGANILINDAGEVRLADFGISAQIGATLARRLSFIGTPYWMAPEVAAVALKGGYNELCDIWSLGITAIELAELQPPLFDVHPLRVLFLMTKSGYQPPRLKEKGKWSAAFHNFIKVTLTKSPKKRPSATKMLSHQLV

IC50 [nM]	Compound
0.08	CC(C)n1cnc2cc(-c3ccc4c(c3)N([C@H]3C[C@@](C)(N5CCCCC5)C3)C(=O)C4(C)C)nc(Nc3cc(C(=O)NCC(F)F)c(Cl)c(F)c3F)c21 [Example 287, 2-chloro-N-(2,2-difluoroethyl)-5-((6-(3,3-dimethyl-1-((1s,3s)-3-methyl-3-(piperidin-1-yl)cyclobutyl)-2-oxoindolin-6-yl)-3-isopropyl-3H-imidazo[4,5-c]pyridin-4-yl)amino)-3,4-difluorobenzamide]
0.09	CCNC(=O)c1cc(Nc2nc(-c3cnc4c(c3)N([C@H]3C[C@@](C)(N5CCCC6(CC6)C5)C3)C(=O)C4(C)C)cc3ncn(C(C)C)c23)c(F)c(F)c1Cl [Example 283, 2-chloro-5-((6-(3,3-dimethyl-1-((1s,3s)-3-methyl-3-(5-azaspiro[2.5]octan-5-yl)cyclobutyl)-2-oxo-2,3-dihydro-1H-pyrrolo[3,2-b]pyridin-6-yl)-3-isopropyl-3H-imidazo[4,5-c]pyridin-4-yl)amino)-N-ethyl-3,4-difluorobenzamide]
0.04	CC(C)n1cnc2cc(-c3cnc4c(c3)N([C@H]3C[C@@](C)(N5CCCCC5)C3)C(=O)C4(C)C)nc(Nc3cc(C(=O)NCC(F)F)c(F)c(F)c3F)c21 [Example 274, N-(2,2-difluoroethyl)-5-((6-(3,3-dimethyl-1-((1s,3s)-3-methyl-3-(piperidin-1-yl)cyclobutyl)-2-oxo-2,3-dihydro-1H-pyrrolo[3,2-b]pyridin-6-yl)-3-isopropyl-3H-imidazo[4,5-c]pyridin-4-yl)amino)-2,3,4-trifluorobenzamide]

Same assay, conditions: recombinant HPK1 kinase domain 0.15 nM, 10 μM ATP, 1 μM STK S1 peptide; geometric mean of multiple experiments

IC50 [nM]	Compound
0.2	CCNC(=O)c1ccc(F)c(Nc2nc(-c3cnc4c(c3)N([C@H]3C[C@@](C)(N5CCCCC5)C3)C(=O)C4(C)C)cc3ncn(C(C)C)c23)c1 [Example 223, 3-((6-(3,3-Dimethyl-1-((1s,3s)-3-methyl-3-(piperidin-1-yl)cyclobutyl)-2-oxo-2,3-dihydro-1H-pyrrolo[3,2-b]pyridin-6-yl)-3-isopropyl-3H-imidazo[4,5-c]pyridin-4-yl)amino)-N-ethyl-4-fluorobenzamide]
0.1	CCNC(=O)c1cc(Nc2nc(-c3ccc4c(c3)N([C@H]3C[C@@H](N5CCCCC5)C3)C(=O)C43CCN(C(C)=O)CC3)cc3ncn(C(C)C)c23)ccc1C [Example 130]
0.06	CC(C)n1cnc2cc(-c3cnc4c(c3)N([C@H]3C[C@@](C)(N5CCCCC5)C3)C(=O)C4(C)C)nc(Nc3cc(C(=O)NC4CC4)c(Cl)c(F)c3F)c21 [Example 265, 2-chloro-N-cyclopropyl-5-((6-(3,3-dimethyl-1-((1s,3s)-3-methyl-3-(piperidin-1-yl)cyclobutyl)-2-oxo-2,3-dihydro-1H-pyrrolo[3,2-b]pyridin-6-yl)-3-isopropyl-3H-imidazo[4,5-c]pyridin-4-yl)amino)-3,4-difluorobenzamide]
0.2	CNC(=O)c1cc(Nc2nc(-c3ccc4c(c3)N([C@H]3C[C@@H](N5CCCCC5)C3)C(=O)C4(C)C)cc3ncn(C(C)C)c23)c(F)cc1F [Example 182]
0.2	CC(=O)N1CCC2(CC1)C(=O)N([C@H]1C[C@@H](N3CCCCC3)C1)c1cc(-c3cc4ncn(C(C)C)c4c(Nc4cc(C(=O)NC(C)C)c(F)cc4F)n3)ccc12 [Example 180]
0.07	Cc1ccc(Nc2nc(-c3ccc4c(c3)N([C@H]3C[C@@H](N5CCCCC5)C3)C(=O)C4(C)C)cc3ncn(C(C)C)c23)cc1C(=O)NCCC(F)F [Example 25]
0.08	Cc1ccc(Nc2nc(-c3ccc4c(c3)N([C@H]3C[C@@H](N5CCCCC5)C3)C(=O)C43CCOCC3)cc3ncn(C(C)C)c23)cc1C(=O)NC1(C(F)F)CC1 [Example 32]
0.07	Cc1c(C(=O)NC2CC2)cc(Nc2nc(-c3cnc4c(c3)N([C@H]3C[C@@](C)(N5CCCCC5)C3)C(=O)C4(C)C)cc3ncn(C(C)C)c23)c(F)c1F [Example 221, N-Cyclopropyl-5-((6-(3,3-dimethyl-1-((1s,3s)-3-methyl-3-(piperidin-1-yl)cyclobutyl)-2-oxo-2,3-dihydro-1H-pyrrolo[3,2-b]pyridin-6-yl)-3-isopropyl-3H-imidazo[4,5-c]pyridin-4-yl)amino)-3,4-difluoro-2-methylbenzamide]
0.2	CC(=O)N1CCC2(CC1)C(=O)N([C@H]1C[C@@H](N3CCCCC3)C1)c1cc(-c3cc4ncn(C(C)C)c4c(Nc4cc(C(=O)NC5CCC5)c(C)cc4F)n3)ccc12 [Example 76]
0.06	Cc1ccc(Nc2nc(-c3ccc4c(c3)N([C@H]3C[C@@H](N5CCCCC5)C3)C(=O)C4(C)C)cc3ncn(C(C)C)c23)cc1C(=O)NCC(C)C [Example 139]
0.1	Cc1ccc(Nc2nc(-c3ccc4c(c3)N([C@H]3C[C@@H](N5CCC[C@H](O)C5)C3)C(=O)C4(C)C)cc3ncn(C4CC4)c23)cc1C(N)=O [Example 36]
0.2	CNC(=O)c1cc(Nc2nc(-c3ccc4c(c3)N([C@H]3C[C@@H](N5CCCCC5)C3)C(=O)C43CCN(C4COC4)CC3)cc3ncn(C(C)C)c23)c(F)cc1C [Example 68]
0.07	CNC(=O)c1cc(Nc2nc(-c3ccc4c(c3)N([C@H]3C[C@@H](N5CCCCC5)C3)C(=O)C4(C)C)cc3ncn(C(C)C)c23)ccc1Cl [Example 119]
0.1	CNC(=O)c1cc(Nc2nc(-c3ccc4c(c3)N([C@H]3C[C@@H](N5CCCC5)C3)C(=O)C4(C)C)cc3ncn(C(C)C)c23)ccc1C [Example 103]
0.1	CNC(=O)c1cc(Nc2nc(-c3ccc4c(c3)N([C@H]3C[C@@H](N5CCCCC5)C3)C(=O)C43CCN(C(=O)C4CC4)CC3)cc3ncn(C4CC4)c23)ccc1C [Example 51]
0.2	CNC(=O)c1cc(Nc2nc(-c3ccc4c(c3)N([C@H]3C[C@@H](N5CCCC(C(F)F)C5)C3)C(=O)C4(C)C)cc3ncn(C(C)C)c23)ccc1C (stereo partly shown) [Example 105, 5-((6-(1-((1s,3s)-3-(3-(difluoromethyl)piperidin-1-yl)cyclobutyl)-3,3-dimethyl-2-oxoindolin-6-yl)-3-isopropyl-3H-imidazo[4,5-c]pyridin-4-yl)amino)-N,2-dimethylbenzamide]
0.4	CNC(=O)c1cc(Nc2nc(-c3ccc4c(c3)N([C@H]3C[C@@H](N5CC6C(C5)C6(F)F)C3)C(=O)C4(C)C)cc3ncn(C(C)C)c23)ccc1C (stereo partly shown) [Example 7]
0.09	Cc1cc(F)c(Nc2nc(-c3ccc4c(c3)N([C@H]3C[C@@H](N5C[C@H]6CC[C@@H]5C6)C3)C(=O)C4(C)C)cc3ncn(C(C)C)c23)cc1C(=O)NC1(C(F)F)CC1 [Example 66]
0.2	CNC(=O)c1cc(Nc2nc(-c3ccc4c(c3)N([C@H]3C[C@@H](N5CCCCC5)C3)C(=O)C43CCN(C(C)=O)CC3)cc3ncn(C4CC4)c23)cc(C)c1C [Example 96]
0.05	CC(C)n1cnc2cc(-c3ccc4c(c3)N([C@H]3C[C@@H](N5CCCCC5)C3)C(=O)C4(C)C)nc(Nc3cc(C(=O)NC4(C(F)F)CC4)c(Cl)c(F)c3F)c21 [Example 244, 2-chloro-N-(1-(difluoromethyl)cyclopropyl)-5-((6-(3,3-dimethyl-2-oxo-1-((1s,3s)-3-(piperidin-1-yl)cyclobutyl)indolin-6-yl)-3-isopropyl-3H-imidazo[4,5-c]pyridin-4-yl)amino)-3,4-difluorobenzamide]
0.06	CNC(=O)c1cc(Nc2nc(-c3ccc4c(c3)N([C@H]3C[C@@H](N5CCCCC5)C3)C(=O)C43CCN(C(=O)C4CCC4)CC3)cc3ncn(C4CC4)c23)ccc1C [Example 155]
0.2	CCn1cnc2cc(-c3ccc4c(c3)N([C@H]3C[C@@H](N5CCCCC5)C3)C(=O)C4(C)C)nc(Nc3cc(C(=O)NC)c(C)cc3F)c21 [Example 101]
0.1	CNC(=O)c1cc(Nc2nc(-c3ccc4c(c3)N([C@H]3C[C@@H](NCC(C)(C)O)C3)C(=O)C4(C)C)cc3ncn(C(C)C)c23)c(F)cc1C [Example 15]
0.1	Cc1ccc(Nc2nc(-c3ccc4c(c3)N([C@H]3C[C@@H](N5CCCCC5)C3)C(=O)C4(C)C)cc3ncn(C(C)C)c23)cc1C(=O)NC(C)C [Example 136, 5-((6-(3,3-dimethyl-2-oxo-1-((1s,3s)-3-(piperidin-1-yl)cyclobutyl)indolin-6-yl)-3-isopropyl-3H-imidazo[4,5-c]pyridin-4-yl)amino)-N-isopropyl-2-methylbenzamide]
0.2	CNC(=O)c1cc(Nc2nc(-c3ccc4c(c3)N([C@H]3C[C@@H](N5C[C@H]6CC[C@@H]5C6)C3)C(=O)C43CCN(C(C)=O)CC3)cc3ncn(C4CC4)c23)ccc1C [Example 44]
0.08	CNC(=O)c1cc(Nc2nc(-c3ccc4c(c3)N([C@H]3C[C@@H](N5CCCCC5)C3)C(=O)C43CCN(C(C)=O)CC3)cc3ncn(C(C)C)c23)c(F)cc1C [Example 92]
0.05	CC(C)n1cnc2cc(-c3cnc4c(c3)N([C@H]3C[C@@](C)(N5C[C@H]6CC[C@@H]5C6)C3)C(=O)C4(C)C)nc(Nc3cc(C(=O)NC4(C(F)F)CC4)c(Cl)c(F)c3F)c21 [Example 263, 5-((6-(1-((1S,3s)-3-((1R,4S)-2-azabicyclo[2.2.1]heptan-2-yl)-3-methylcyclobutyl)-3,3-dimethyl-2-oxo-2,3-dihydro-1H-pyrrolo[3,2-b]pyridin-6-yl)-3-isopropyl-3H-imidazo[4,5-c]pyridin-4-yl)amino)-2-chloro-N-(1-(difluoromethyl)cyclopropyl)-3,4-difluorobenzamide]

Compound	IC50 [nM]
Cc1c(C(=O)NC2(C(F)F)CC2)cc(Nc2nc(-c3cnc4c(c3)N(C3CC(C)(N5CCC6C[C@H]5CO6)C3)C(=O)C4(C)C)cc3ncn(C(C)C)c23)c(F)c1F (stereo partly shown) [Example 191, 5-((6-(1-((1s,3s)-3-(6-oxa-2-azabicyclo[3.2.1]octan-2-yl)-3-methylcyclobutyl)-3,3-dimethyl-2-oxo-2,3-dihydro-1H-pyrrolo[3,2-b]pyridin-6-yl)-3-isopropyl-3H-imidazo[4,5-c]pyridin-4-yl)amino)-N-(1-(difluoromethyl)cyclopropyl)-3,4-difluoro-2-methylbenzamide]	0.09
